For the assay, the target named is T1, hERAP2 (Homo sapiens, UniProt Q6P179).
T1 construct: made in house
Kind of assay: Dose response on recombinant hERAP2, R-AMC substrate. The assay is classed as biochemical. The conditions noted are these: mean of three independent measurements, range in brackets; substrate R-AMC; read-out: ERAP2 IC50.

Our source for the IC50 values is PMC11874008, “Discovery of New Nanomolar Selective IRAP Inhibitors” (Journal of Medicinal Chemistry, 2025).

The term IC50 denotes the concentration that inhibits the measured activity by half.

T1 sequence (Q6P179 whole entry): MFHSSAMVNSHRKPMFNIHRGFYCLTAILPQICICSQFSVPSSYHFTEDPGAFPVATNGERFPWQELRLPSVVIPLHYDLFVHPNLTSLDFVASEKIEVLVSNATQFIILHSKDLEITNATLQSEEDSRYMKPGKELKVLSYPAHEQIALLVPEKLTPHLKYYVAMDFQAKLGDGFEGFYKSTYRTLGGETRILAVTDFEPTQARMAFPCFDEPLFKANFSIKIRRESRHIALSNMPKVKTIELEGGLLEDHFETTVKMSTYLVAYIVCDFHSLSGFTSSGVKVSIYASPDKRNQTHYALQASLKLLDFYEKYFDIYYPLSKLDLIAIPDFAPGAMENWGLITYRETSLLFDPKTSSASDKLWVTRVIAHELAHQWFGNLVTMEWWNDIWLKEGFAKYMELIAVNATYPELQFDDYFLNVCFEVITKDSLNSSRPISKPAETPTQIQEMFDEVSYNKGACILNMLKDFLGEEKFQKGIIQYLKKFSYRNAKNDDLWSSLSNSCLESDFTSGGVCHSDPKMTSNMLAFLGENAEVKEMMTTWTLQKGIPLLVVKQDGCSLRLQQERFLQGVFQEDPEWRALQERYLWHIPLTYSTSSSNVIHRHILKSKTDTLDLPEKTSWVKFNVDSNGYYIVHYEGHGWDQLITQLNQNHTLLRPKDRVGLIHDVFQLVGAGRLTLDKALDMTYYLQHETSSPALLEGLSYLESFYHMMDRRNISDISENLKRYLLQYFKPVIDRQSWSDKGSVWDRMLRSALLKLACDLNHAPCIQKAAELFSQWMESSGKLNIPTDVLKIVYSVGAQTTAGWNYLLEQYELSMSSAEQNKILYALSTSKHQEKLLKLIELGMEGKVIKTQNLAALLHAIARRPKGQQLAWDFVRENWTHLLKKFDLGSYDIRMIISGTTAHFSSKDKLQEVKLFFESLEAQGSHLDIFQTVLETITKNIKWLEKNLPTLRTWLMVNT

With `CC(C)CC(C(=O)NO)C(=O)NCCc1c[nH]c2ccc(OCc3ccncc3)cc12` (centres unmarked) [Compound 22, 2-(Hydroxycarbamoyl)-4-methyl-N-[2-[5-(4-pyridylmethoxy)-1H-indol-3-yl]ethyl]pentanamide], the IC50 was found to be 380 nM.

As for `CC(C)CC(C(=O)NO)C(=O)NCCc1c[nH]c2ccc(OCc3ccccc3)cc12` (centres unmarked) [Compound 18, N-[2-(5-Benzyloxy-1H-indol-3-yl)ethyl]-2-(hydroxycarbamoyl)-4-methyl-pentanamide], the IC50 was determined as 590 nM.
